ChEMBL document CHEMBL1268851, “Anti-inflammatory Biphenyls and Dibenzofurans from Rhaphiolepis indica” (J Nat Prod, 2010)

test: Antiinflammatory activity in human neutrophils assessed as inhibition of fMLP-indcued superoxide production after 5 mins; assay type: functional, cell-based; details: Neutrophil

SMILES	IC50
COc1c(O)cc2c(oc3c(OC)cccc32)c1OC	27.4 µM
COc1c(O)cc2c(oc3cccc(OC)c32)c1OC	27.4 µM
COc1cc(O)cc(-c2ccccc2OC)c1	8.36 µM
COc1cc(O)cc(-c2ccccc2O)c1	2.04 µM
COc1c(O)cc2c(oc3c(OC)ccc(OC)c32)c1OC	7.61 µM
CC(C)Cc1ccc(C(C)C(=O)O)cc1 (stereo not drawn) [IBUPROFEN]	27.5 µM

Now from value to molecule:

IC50	SMILES
> 100 µM	COc1c2c(c3c(oc4c(OC)cccc43)c1OC)OCO2
34.1 µM	COc1cc(O)cc(-c2ccccc2)c1
